From patent US20100143994A1, “PROCESS FOR FERMENTIVE PREPARATION OF ALCOHOLS AND RECOVERY OF PRODUCT” (E. I. DU PONT DE MEMOURS AND COMPANY, priority 2008, published 2010)

Experiments:
[1] = test system: Saccharomyces cerevisiae (W1362 20A); assay: Scale-up (25 mL broth) fermentation with ionic liquid, glucose uptake and ethanol production over five hours; format: cell-based; settings: 5 volume percent ionic liquid, five hour time span, FIG. 2
Description: Cultures were again prepared using the same growth conditions as described above except that the total broth volume was 25 mL. The selected ionic liquids were added to a container of each broth in an amount of 5 volume percent. In these experiments, small samples were withdrawn from the broth for HPLC analysis periodically over a five hour time span to get a better idea of the extent of metabolic activity after ionic liquid addition as well as to provide information on glucose consumption and product formation. […] The calculation of GUI was made as described above, and amount of ethanol produced was taken directly from the HPLC data.

[2] = Extraction of ethanol from an aqueous solution by ionic liquid; format: physicochemical; settings: 3 mL aqueous solution about 31 g/L ethanol, 5 vol % ionic liquid, overnight equilibration
Description: (§1) Ethanol and isobutanol concentration in the solution was measured using HPLC as described above following thorough mixing and overnight equilibration of the contents of the vial.

[3] = Extraction of isobutanol from an aqueous solution by ionic liquid; format: physicochemical; settings: 3 mL aqueous solution about 31 g/L isobutanol, 5 vol % ionic liquid, overnight equilibration
Description: as §1

Row | Molecule | ethanol production throughout the fermentation run [1] | glucose uptake (GUI) throughout the fermentation run [1] | Ethanol (mM) in solution after equilibration [2] | Isobutanol (mM) in solution after equilibration [3]
1 | 1-butyl-3-methylpyrrolidinium bis(trifluoromethylsulfonyl)imide [Example 15] | remained robust | remained robust | 676 mM | 391 mM
2 | 1-ethyl-3-methylimidazolium bis(trifluoromethylsulfonyl)imide [Example 6] | remained robust | remained robust | 670 mM | 389 mM
3 | 1-hexyl-3-methylimidazolium bis(trifluoromethylsulfonyl)imide [Example 9] | remained robust | remained robust | 678 mM | 388 mM
4 | CCCCCCn1cc[n+](C)c1.FC(F)(F)C(F)(F)[P-](F)(F)(F)(C(F)(F)C(F)(F)F)C(F)(F)C(F)(F)F [Example 1, 1-hexyl-3-methylimidazolium tris(pentafluoroethyl)trifluorophosphate] | remained robust | remained robust | 680 mM | 404 mM
